The record followed here is US11542316B2, “S-Arrestin peptides and therapeutic uses thereof” (APITOPE INTERNATIONAL NV, priority 2017, dated 2023).

Ends that are not written are not given here.

Test [1] deals with SAg-specific hybridoma cells / T cell line with VAVY APC. Briefly: Antigen Processing Independent Presentation System (APIPS) assay, fresh or fixed VAVY APC. The note with it: DR3 hybridoma clone (IL-2, 48 h) or T cell line (IFN-γ, 24 h). It counts as cell-based, DR3 mice. As to the method:
(§1) FIG. 2: identification of apitopes within HIP-115. (A) DR3 mice were immunized with SAg and hybridomas were generated. 5×10^4 SAg-specific hybridoma cells were cultured with 5×10^4 fresh or fixed commercial APC (VAVY) cells. T cell proliferation was measured by IL-2 ELISA on supernatants collected after 48 h. The graph represents the mean of duplicate measurements±SEM. (B) DR3 mice were immunized with HIP-115 and a T cell line was established. Ten days after immunization the LN and spleens were harvested and cultured with different concentrations of peptide (0.1-1-2.5 and 5 μg/ml); 2×10^6 cells/ml APC+1×10^6 cells/ml CD4 T cells per well. At day 7 the cells were re-stimulated with the same concentrations of peptide. On day 14 an APIPS test was done using commercial APC (VAVY). After 24 h, antigen-induced T cell activation was measured by IFN-γ ELISA and shown as IFN-γ concentration (pg/ml). The graph represents the mean of duplicate measurements±SEM. LN, lymph nodes; APC, Antigen presenting cell; APIPS, Antigen Processing Independent Presentation System.
as §1, with “3:” for “2:”, “HIP-241125.” for “HIP-115.”, “HIP-241125+HIP-24DG” for “HIP-115”
(§2) FIG. 5: Identification of apitopes within HIP-17GN. DR3 mice were immunized with HIP-17GN and a T cell line was established. Ten days after immunization the LN and spleens were harvested and cultured with different concentrations of peptide (0.1-1-2.5 and 5 μg/ml); 2×10^6 cells/ml APC+1×10^6 cells/ml CD4 T cells per well. At day 7 the cells were re-stimulated with the same concentrations of peptide. On day 14 an APIPS test was done using commercial APC (VAVY). After 24 h, antigen-induced T cell activation was measured by IFN-γ ELISA and shown as OD values. The graph represents the mean of triplicate measurements±SEM. LN, lymph nodes; APC, Antigen presenting cell; APIPS, Antigen Processing Independent Presentation System.
as §2, with “6:” for “5:”, “HIP-12AK.” for “HIP-17GN.”, “HIP-12AK” for “HIP-17GN”, “IFN-γ concentration (pg/ml).” for “OD values.”, “duplicate” for “triplicate”
Antigen-specific clones or TCL were tested for their reactivity to the peptides, presented by fixed or not fixed (fresh) cells (VAVY or MGAR) (=APCs). 5×10^4 cells from the individual clones were cultured with 10 μg/ml peptide and 5×10^4 fixed or fresh APCs. […]

Test [2] relates to LN cells and splenocytes upon SAg or peptide restimulation. Kind of test: Ex vivo tolerization experiment, DR2tg mice. It counts as in vivo. The note with it: DR2 mice, IFN-γ. Here is the method:
FIG. 7: Ex vivo tolerisation protocol. Mice are injected subcutaneously in the flank with 0.1 μg/ml, 1 μg/ml and 10 μg/ml peptide on days −15, −13 and −11, followed by 3 injections of 100 μg/ml on days −8, −6 and −4 (escalating dose regime). On day 0, mice are immunized subcutaneously at the base of the tail with SAg/CFA or peptide/CFA. Mice are sacrificed 10 days after immunization to measure proliferation of LN cells and splenocytes upon SAg or peptide restimulation. LN, lymph nodes.
FIG. 11: Ex vivo tolerance induction by HIP-9K1-KKK apitope. DR2 mice are injected subcutaneously in the flank with 0.1 μg/ml, 1 μg/ml and 10 μg/ml HIP-9K1-KKK on days −15, −13 and −11, followed by 3 injections of 100 μg/ml on days −8, −6 and −4 (escalating dose regime). On day 0, mice are immunized subcutaneously at the base of the tail with HIP-9FL/CFA. Mice are sacrificed 10 days after immunization to measure proliferation of LN cells and splenocytes upon SAg or peptide restimulation. Data represent mean±SEM of the concentration values for the PBS-treated mice (black lines) and peptide-treated mice (color lines). IFN-γ production expressed as IFN-γ concentration (pg/ml). Two-way ANOVA was used to measure overall treatment effects on T cell activation and p-values are written in the graphs. Bonferonni post-hoc testing was used and significant differences are indicated in the graphs (* p<0.05; **** p<0.0001). LN, lymph nodes. (A) Tolerisation against SAg in LN. (B) Tolerisation against HIP-9FL and HIP-9K1-KKK in LN. (C) Tolerisation against SAg in spleen. (D) Tolerisation against HIP-9FL and HIP-9K1-KKK in spleen.
FIG. 13: Ex vivo tolerance induction by HIP-12G1-KKK apitope. DR2 mice are injected subcutaneously in the flank with 0.1 μg/ml, 1 μg/ml and 10 μg/ml HIP-12G1-KKK on days −15, −13 and −11, followed by 3 injections of 100 μg/ml on days −8, −6 and −4 (escalating dose regime). On day 0, mice are immunized subcutaneously at the base of the tail with HIP-12AK/CFA. Mice are sacrificed 10 days after immunization to measure proliferation of LN cells and splenocytes upon SAg or peptide restimulation. Data represent mean±SEM of the concentration values for the PBS-treated mice (black lines) and peptide-treated mice (color lines). IFN-γ production expressed as IFN-γ concentration (pg/ml). Two-way ANOVA was used to measure overall treatment effects on T cell activation and p-values are written in the graphs. Bonferonni post-hoc testing was used and significant differences are indicated in the graphs (** p<0.01; *** p<0.001: **** p<0.0001). LN, lymph nodes. (A) Tolerisation against HIP-12G1-KKK and HIP-12G1 in LN. (B) Tolerisation against HIP-12G1-KKK in spleen.
DR3tg or DR2tg mice were injected subcutaneously in the flank region with 0.1 μg, 1 μg and 10 μg of peptide on days −15, −13 and −11 respectively, followed by 3 injections of 100 μg peptide on days −8, −6 and −4 (dose escalation schedule). On day 0, the mice were immunised subcutaneously in the base of the tail with 50 μg antigen (parental peptide) emulsified in CFA (peptide/CFA). Ten days after immunisation, draining lymph nodes (LN) and spleens were harvested. LN cells and splenocytes were isolated and cultured in X-vivo 15 medium (supplemented with 2 mM L-glutamine, 50 U/mL penicillin and 50 U/mL streptomycin; Lonza) in 96-well flat bottom plates. To investigate antigen-induced cell proliferation, 0.5×10^6 cells/well were cultured (200 μl/well) for 72 hours with different antigen concentrations (0-25 μg/ml) or with 12.5 μg/ml purified protein derivative (PPD; priming control; Statens serum institut, Copenhagen, Denmark). After 72 hours, supernatant was harvested and stored at −80° C. until further analysis. IFN-γ concentrations in supernatants were assessed by cytokine ELISA (R&D Systems, Abingdon, UK) to measure cell activation.

The subject of test [3] is T cell line with MGAR APC. Kind of test: Antigen Processing Independent Presentation System (APIPS) assay, fresh or fixed MGAR APC. Type of test: cell-based, DR2 mice. To be noted: DR2 T cell line, IFN-γ, 24 h. Here is the method: FIG. 4: Identification of apitopes within HIP-9FL. DR2 mice were immunized with HIP-9FL-KKK and a T cell line was established. Ten days after immunization the LN and spleens were harvested and cultured with different concentrations of peptide (0.1-1-2.5 and 5 μg/ml); 2×10^6 cells/ml APCs+1×10^6 cells/ml CD4 T cells per well. At day 7 the cells were re-stimulated with the same concentrations of peptide. On day 21 an APIPS test was done using commercial APC (MGAR). After 24 h, antigen-induced T cell activation was measured by IFN-γ ELISA and shown as OD values. The graph represents the mean of duplicate measurements±SEM. LN, lymph nodes; APC, Antigen presenting cell; APIPS, Antigen Processing Independent Presentation System.
Antigen-specific clones or TCL were tested for their reactivity to the peptides, presented by fixed or not fixed (fresh) cells (VAVY or MGAR) (=APCs). 5×10^4 cells from the individual clones were cultured with 10 μg/ml peptide and 5×10^4 fixed or fresh APCs. In the case of TCL, 5×10^4 cells were cultured with 10 μg/ml and 25 μg/ml peptide and 2.5×10^4 fixed or fresh APCs. To fixate APCs, cells were incubated with 0.5% paraformaldehyde (Merck, Darmstadt, Germany) (pH7) for 5 min at room temperature (RT). The fixation reaction was stopped by adding 0.4M glycine (Sigma-Aldrich) and washing the cells in RPMI-10% FCS. Additionally, reactivity towards human SAg protein (QBiologicals, Eurofins Amatsigroup, Ghent, Belgium) was measured to identify cryptic epitopes. After 24 h or 48 h, antigen-induced IFN-γ or IL-2 production (respectively) was measured by ELISA (R&D Systems, Abingdon, UK).
DR3tg or DR2tg mice were immunised subcutaneously in the base of the tail with 50 μg peptide emulsified in CFA (peptide/CFA). Ten days after immunisation, draining lymph nodes (LN) and spleens were harvested. […] At day 7, TCL cells were counted and cultured with fresh APC, peptides and IL-2, all at the same concentrations as above. […]

Consider “KKKGILVSYQIKVKKKK-NH2 [HIP-12G1-KKK, KKKGILVSYQIKVKKKK]”, for which the “behaves as apitope (response to peptide presented by fresh or fixed APC)” value (from here on “behaves as apitope”) in test [1] is listed as “behave as apitopes”. For the same substance, in test [2] (LN), the “tolerization against the peptide itself / parental peptide” value is listed as “tolerization induced”. Besides, the “tolerization against the peptide itself” value in test [2] (spleen) was “tolerization induced”.

Turning to “KKKVKKIKAFVEQVANVVLYSSDYKKK-NH2 [HIP-9FL-KKK]”, in test [3], the “behaves as apitope” value is reported as “behave as apitopes”.

Consider VKKIKAFVEQVANVVLYSSDY-NH2 [HIP-9FL], for which the “behaves as apitope” value in test [3] is recorded as “behave as apitopes”.
